#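 Values below derive from 48-hour exposures of cells grown in 96-well plates, with endpoints linearly interpolated between the two concentrations bracketing the appropriate inhibition level. GI50 marks 50% less growth. TGI: total growth inhibition.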
# Key:
# Assay in all cases: growth of human tumour cells (NCI), 48 h
# UACC-257 melanoma = test system: UACC-257 melanoma
# HCT-15 colon = test system: HCT-15 colon
# SF-539 CNS = test system: SF-539 CNS
# HOP-62 NSCLC = test system: HOP-62 NSCLC
# RXF 393 renal = test system: RXF 393 renal
# NCI-H522 lung = test system: NCI-H522 lung
# HL-60(TB) leukemia = test system: HL-60(TB) leukemia
# OVCAR-5 ovarian = test system: OVCAR-5 ovarian
SMILES,GI50 (UACC-257 melanoma),TGI (UACC-257 melanoma),GI50 (HCT-15 colon),TGI (HCT-15 colon),GI50 (SF-539 CNS),TGI (SF-539 CNS),GI50 (HOP-62 NSCLC),TGI (HOP-62 NSCLC),GI50 (RXF 393 renal),TGI (RXF 393 renal),GI50 (NCI-H522 lung),TGI (NCI-H522 lung),GI50 (HL-60(TB) leukemia),TGI (HL-60(TB) leukemia),GI50 (OVCAR-5 ovarian),TGI (OVCAR-5 ovarian)
CC(C)(O)CCc1cccc(C(=O)c2cnn(-c3ccc(F)cc3)c2N)c1,> 25 µM,> 25 µM,> 25 µM,> 25 µM,> 25 µM,> 25 µM,> 25 µM,> 25 µM,> 25 µM,> 25 µM,> 25 µM,> 25 µM,> 25 µM,> 25 µM,> 25 µM,> 25 µM
O=C(CSC(c1ccccc1)c1ccccc1)N/N=C/c1ccccc1Cl,7.05 µM,63.8 µM,8.36 µM,> 51 µM,29 µM,> 90.2 µM,22.7 µM,> 76.8 µM,10.2 µM,55.9 µM,30.2 µM,> 100 µM,–,8.46 µM,10.7 µM,> 73.2 µM
O=C(NCCCl)Nc1ccccc1,–,> 100 µM,–,> 100 µM,–,–,–,> 100 µM,–,> 100 µM,–,> 100 µM,–,> 100 µM,–,> 100 µM
COc1c(-c2ccc3c(c2)OCO3)oc2cc(O)cc(O)c2c1=O,–,> 100 µM,–,> 100 µM,–,> 100 µM,–,55.5 µM,–,42.5 µM,–,83.8 µM,–,> 100 µM,–,> 100 µM
COc1cc2c3c(n(CCN4CCOCC4)c(=O)c2cc1OC)-c1ccccc1C3=O,> 100 µM,> 100 µM,> 100 µM,> 100 µM,> 100 µM,> 100 µM,89.4 µM,> 100 µM,> 100 µM,> 100 µM,21.2 µM,> 100 µM,35.7 µM,> 100 µM,> 100 µM,> 100 µM
COc1ccc2c(CCCc3ccc(Cl)cc3Cl)c3[n+](cc2c1OC)CCc1cc2c(cc1-3)OCO2,–,–,1.72 µM,3.29 µM,–,–,–,–,–,–,–,–,0.23 µM,0.838 µM,1.13 µM,2.62 µM
CC(=O)c1ccc2c3c1[C@H]1O[C@H]1c1cccc(c1-3)[C@@H]1O[C@H]21,–,8.1 µM,–,4.12 µM,–,–,–,8.83 µM,–,3.82 µM,–,1.1 µM,–,5.75 µM,–,3.68 µM
O=C1CC(Cc2n[nH]c3c2CCCC3)CC(=O)N1,–,> 100 µM,–,> 100 µM,–,> 100 µM,–,> 100 µM,–,> 100 µM,–,–,–,> 100 µM,–,> 100 µM
CNCC(=O)NC(CO)C(=O)NC(CO)C(=O)NC1C(C(N)=O)OC(n2ccc(N)nc2=O)C(O)C1O (configuration not stated),13.7 µg/mL,> 50 µg/mL,15.8 µg/mL,> 50 µg/mL,5.01 µg/mL,28.7 µg/mL,6.44 µg/mL,32.3 µg/mL,6.4 µg/mL,35.4 µg/mL,1.85 µg/mL,8.98 µg/mL,> 50 µg/mL,> 50 µg/mL,9.43 µg/mL,> 50 µg/mL
O=C(NCc1ccco1)C1CCN(S(=O)(=O)c2ccc(Cl)cc2)CC1,> 100 µM,> 100 µM,39.6 µM,> 100 µM,> 100 µM,> 100 µM,> 100 µM,> 100 µM,> 100 µM,> 100 µM,90.5 µM,> 100 µM,> 100 µM,> 100 µM,> 100 µM,> 100 µM
CN(C)CC1C(=O)O[C@H]2[C@H]1CC/C(COC(=O)NCc1ccc(Cn3c(=O)sn(CCCI)c3=O)cc1)=C\CC[C@@]1(C)O[C@@H]21 (some centres not stated),4.04 µM,11.7 µM,0.965 µM,2.13 µM,2.57 µM,8.75 µM,4.23 µM,12.7 µM,0.889 µM,1.71 µM,0.742 µM,1.68 µM,–,–,1.38 µM,5.04 µM
CC1=NN(c2cccc(Cl)c2)C(=O)/C1=C\C=C\c1ccccc1,2.13 µM,7.26 µM,2.27 µM,5.68 µM,2.5 µM,6.12 µM,3.18 µM,11.1 µM,2.12 µM,3.92 µM,2.63 µM,6.84 µM,3.14 µM,> 100 µM,2.81 µM,7.83 µM
[Cl][Hg][c]1ccc2ccccc2c1,1.97 µM,4.33 µM,1.58 µM,3.18 µM,2.02 µM,4.73 µM,3.93 µM,11.8 µM,1.62 µM,3.04 µM,0.821 µM,2.37 µM,0.655 µM,2.36 µM,7.55 µM,16.5 µM
CC(=O)O[C@@H]1C2=C(C)C3(CC3)[C@@](C)(O)C(=O)C2=C[C@@]1(C)CO,1.65 µM,5.38 µM,0.423 µM,10.1 µM,1.02 µM,3.38 µM,0.474 µM,4.52 µM,0.24 µM,0.658 µM,0.496 µM,4.44 µM,0.414 µM,> 22.5 µM,0.427 µM,–
O=C(NNc1ccccc1)c1ccc(Cl)c(Cl)c1,–,13.9 µM,–,> 100 µM,–,0.133 µM,–,> 100 µM,–,> 84 µM,–,23 µM,–,70.4 µM,–,> 100 µM
CC(C)c1[nH]nc2c(NCc3ccc(-c4ccccn4)cc3)nc(SCCN(C)C)nc12,0.017 µM,0.0826 µM,0.0872 µM,10.9 µM,0.0745 µM,0.242 µM,< 0.0177 µM,0.236 µM,< 0.0136 µM,0.0354 µM,< 0.015 µM,< 0.0232 µM,< 0.0156 µM,0.0313 µM,0.0572 µM,11.2 µM
CCN(CC)S(=O)(=O)c1cccc(-c2ccc3c(NC(=O)C4CC4)n[nH]c3c2)c1,2.26 µM,> 6.25 µM,2.4 µM,> 6.25 µM,1.47 µM,5.6 µM,2.54 µM,> 6.25 µM,1.94 µM,5.17 µM,1.08 µM,> 6.25 µM,2.17 µM,> 6.25 µM,5.69 µM,> 6.25 µM
NC(Cc1cccnn1)C(=O)O (configuration not stated),–,> 100 µM,–,> 100 µM,–,> 100 µM,–,> 100 µM,–,> 100 µM,–,> 100 µM,–,> 100 µM,–,> 100 µM

SMILES,GI50 (UACC-257 melanoma),TGI (UACC-257 melanoma),GI50 (HCT-15 colon),TGI (HCT-15 colon),GI50 (SF-539 CNS),TGI (SF-539 CNS),GI50 (HOP-62 NSCLC),TGI (HOP-62 NSCLC),GI50 (RXF 393 renal),TGI (RXF 393 renal),GI50 (NCI-H522 lung),TGI (NCI-H522 lung),GI50 (HL-60(TB) leukemia),TGI (HL-60(TB) leukemia),GI50 (OVCAR-5 ovarian),TGI (OVCAR-5 ovarian)
COC(=O)c1ccc(NC(=O)c2ccc(NC3=C(Cl)C(=O)N(Cc4ccccc4)C3=O)cc2)cc1,27.3 µM,76.5 µM,14.6 µM,27.7 µM,20.7 µM,39.4 µM,11.1 µM,23.1 µM,22.9 µM,48.3 µM,13.1 µM,33.1 µM,12.8 µM,25.4 µM,21.5 µM,39 µM
CCC[n+]1cc2cc3c(cc2c2c1-c1cc4c(cc1C2)OCO4)OCO3 (tested in a mixture with another compound),0.706 µM,3.16 µM,28.2 µM,> 100 µM,0.425 µM,2.88 µM,0.546 µM,6.53 µM,–,–,–,2.08 µM,2.98 µM,14.8 µM,8.85 µM,29 µM
OC(CN1CCCC2CCCCC21)c1cc2ccccc2c2ccccc12 (configuration not stated),1.96 µM,4.73 µM,2.15 µM,9.23 µM,1.99 µM,4.74 µM,1.84 µM,3.91 µM,1.71 µM,3.59 µM,1.45 µM,3.06 µM,2.02 µM,3.76 µM,1.95 µM,5.64 µM
C#CCOc1cccc(Nc2ncnc3cc(NC(=O)C=C)ccc23)c1,32.3 µM,> 100 µM,3.44 µM,> 100 µM,2.89 µM,14 µM,13.4 µM,> 100 µM,2.44 µM,13.3 µM,2.8 µM,34.2 µM,3.84 µM,45.7 µM,14.1 µM,> 100 µM
CCCCSc1nc(N)c2cn[nH]c2n1,19.4 µM,35 µM,32.9 µM,> 100 µM,18.3 µM,39.1 µM,22.5 µM,48.8 µM,9.25 µM,> 44 µM,20.7 µM,49.6 µM,23.6 µM,> 100 µM,16.6 µM,54.3 µM
Cc1nc2sc(C(=O)Nc3ccccc3)c(N)c2cc1C(O)c1ccccc1 (configuration not stated),4.21 µM,> 52 µM,0.17 µM,> 100 µM,0.219 µM,0.638 µM,0.448 µM,> 53.8 µM,0.27 µM,1.88 µM,0.304 µM,> 24.1 µM,0.234 µM,0.657 µM,0.565 µM,> 88.1 µM
C[C@@H](CS[As](C)C)C(=O)N1CCC[C@H]1C(=O)O,1.45 µM,7.8 µM,0.0888 µM,1.28 µM,0.131 µM,1.41 µM,0.897 µM,5.11 µM,0.194 µM,2.81 µM,0.0715 µM,0.199 µM,0.0994 µM,–,0.444 µM,1.8 µM
Cc1cc(Cl)nc(N(CCCNc2ccnc3cc(Cl)ccc23)Cc2cccs2)n1,2.19 µM,5.49 µM,1.43 µM,10.1 µM,1.81 µM,5.85 µM,1.83 µM,10.7 µM,1.37 µM,5.22 µM,1.31 µM,4.31 µM,–,–,1.39 µM,13.7 µM
CC(=O)CCc1ccc(Oc2c3c(nc4ccccc24)OCC3)cc1,3.12 µM,30.2 µM,58.8 µM,> 100 µM,85.7 µM,> 100 µM,> 100 µM,> 100 µM,22.3 µM,> 100 µM,56.2 µM,> 100 µM,–,–,77 µM,> 100 µM
O=C1c2ccn(CCCNC(CO)(CO)CO)c2C(=O)c2c1c(O)c1ccccc1c2O,43.9 µM,> 78.1 µM,14.2 µM,28.6 µM,11.4 µM,25.6 µM,2.43 µM,17.9 µM,24.2 µM,> 61 µM,12.9 µM,46.6 µM,–,–,–,13.5 µM
C=C(C)C1CCC2=CC(CC3(C)OC3C3=CC(C(=O)OC)=C(C1)O3)OC2=O (configuration not stated),–,> 100 µM,–,> 100 µM,–,> 100 µM,–,> 100 µM,–,> 100 µM,–,> 100 µM,–,–,–,> 100 µM
CCn1cc(C(=O)N/N=C/c2cccs2)c(=O)c2cc(F)c(N3CCNC(C)C3)c(F)c21 (configuration not stated),1.8 µM,3.43 µM,1.47 µM,2.82 µM,1.62 µM,3.07 µM,1.59 µM,3.17 µM,1.47 µM,3 µM,–,–,–,–,1.59 µM,2.97 µM
Cc1nn(Cc2ccccc2)cc1C(=O)Nc1sc2c(c1C(N)=O)CCC(=O)C2,2.16 µM,6.24 µM,1.63 µM,3.72 µM,1.36 µM,3.02 µM,2.45 µM,> 100 µM,2.35 µM,7.1 µM,1.25 µM,5.25 µM,–,–,1.92 µM,4.3 µM
Cc1cc(-c2nc3n(c2/C=N/N=C(N)N)CCS3)c(C)s1,–,–,14.8 µM,28 µM,16.8 µM,31.3 µM,17.5 µM,31.3 µM,–,–,–,–,36.9 µM,> 100 µM,14.9 µM,29.8 µM
COc1cc2c3c(n([C@@H]4CCOC4)c(=O)c2cc1OC)-c1cc2c(cc1C3=O)OCO2,–,–,–,–,< 0.01 µM,0.0208 µM,–,–,–,–,< 0.01 µM,> 100 µM,< 0.01 µM,> 100 µM,–,–
Cc1c(Cl)cccc1NC(=O)c1sc2nc3c(cc2c1N)C(=O)CCC3,–,–,0.0665 µM,> 100 µM,0.0353 µM,0.19 µM,0.102 µM,29.8 µM,0.037 µM,1.11 µM,0.0204 µM,0.395 µM,0.081 µM,0.769 µM,0.283 µM,> 100 µM
Cn1c2c(c3ccccc3c1=O)C(=O)c1ccccc1-2,–,> 100 µM,–,> 100 µM,–,59.1 µM,–,> 100 µM,–,–,–,> 100 µM,–,> 100 µM,–,> 100 µM

# Reference: PubChem BioAssay (NCI)
